The record followed here is PubChem BioAssay (NCI).

“And” between values parts separate entries of the source, which are not always exact repeats. Equal values may be shown once.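 96-well plates; 48 h exposure; 5 concentrations. Endpoints by linear interpolation between flanking doses. Not reached: highest tested concentration assigned. GI50 marks 50% less growth. At the TGI there is no net growth.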

Some test systems named below: SF-295 CNS; HOP-62 NSCLC; OVCAR-5 ovarian; MCF7 breast; IGROV1 ovarian; NCI-H226 lung; ACHN renal; SN12C renal; UO-31 renal; DU-145 prostate.
Holding throughout (experiment): NCI-60 cell line screen, 48 h

Take `O=C(Nc1cccc(Cl)c1)c1cc2ccccc2cc1O`: the GI50 was 4.11 µM and 13.1 µM with SF-295 CNS; 2.8 µM and 2.47 µM in the assay with HOP-62 NSCLC; 6.59 µM and 1.98 µM in the assay with OVCAR-5 ovarian; 2.66 µM and 2.12 µM in the assay on MCF7 breast; 2.71 µM and 2.06 µM in the assay with IGROV1 ovarian; 4.65 µM and 2.68 µM in the assay with NCI-H226 lung. For the same compound, the GI50 was 2.55 µM and 0.609 µM in the assay on ACHN renal; 2.05 µM and 1.76 µM in the assay on SN12C renal; 0.34 µM in the assay on UO-31 renal; 3.07 µM and 2.38 µM with DU-145 prostate. The TGI in the assay with SF-295 CNS, in the assay on OVCAR-5 ovarian, in the assay with MCF7 breast, in the assay with IGROV1 ovarian, in the assay on NCI-H226 lung and with ACHN renal was above 100 µM each time. For the same compound, the TGI with SN12C renal, in the assay on UO-31 renal and in the assay on DU-145 prostate was above 100 µM in each case.

For the compound `O=C(O)c1c(-c2nccc3ccccc23)[nH]c(-c2ccccc2)c1S(=O)(=O)O`, the TGI in the assay with SF-295 CNS, in the assay with HOP-62 NSCLC, in the assay with OVCAR-5 ovarian, with MCF7 breast, with IGROV1 ovarian and with NCI-H226 lung was above 100 µM in each case. For the same compound, the TGI in the assay with ACHN renal, in the assay on SN12C renal, in the assay with UO-31 renal and with DU-145 prostate was above 100 µM in each case.

As for `O=C(N/N=C\c1cc(Br)ccc1O)c1ccncc1`, the GI50 with SF-295 CNS is 3.47 µM; with HOP-62 NSCLC, 1.57 µM; with OVCAR-5 ovarian, 3.76 µM; with MCF7 breast, 1.55 µM; with IGROV1 ovarian, 3.51 µM; in the assay on NCI-H226 lung it was 1.86 µM. Moreover, the GI50 with ACHN renal is 2.37 µM; in the assay with SN12C renal, 4.63 µM; in the assay on UO-31 renal, 1.76 µM; with DU-145 prostate, 2.53 µM. Also, the TGI is above 100 µM in the assay with SF-295 CNS; 66.2 µM with HOP-62 NSCLC; above 100 µM with OVCAR-5 ovarian; 7.25 µM in the assay with MCF7 breast; above 100 µM in the assay with IGROV1 ovarian; 32.6 µM in the assay on NCI-H226 lung. The TGI in the assay with ACHN renal, in the assay with SN12C renal, with UO-31 renal and in the assay on DU-145 prostate was above 100 µM each time.

As to `Nc1nc(Cl)cc(NCCO)n1`, the TGI with SF-295 CNS, with HOP-62 NSCLC, in the assay on OVCAR-5 ovarian, with MCF7 breast, in the assay on IGROV1 ovarian and in the assay with NCI-H226 lung was above 100 µM in each case. In addition, the TGI in the assay on ACHN renal, in the assay on SN12C renal, in the assay on UO-31 renal and with DU-145 prostate was above 100 µM throughout.

Regarding `CCN1C(=O)N(CC)C2C1NC(=S)N2/N=C/C=C/c1cccs1` (stereo not drawn), the GI50 with SF-295 CNS was 0.258 µM; with HOP-62 NSCLC, 0.414 µM; in the assay on OVCAR-5 ovarian, 0.544 µM; in the assay on MCF7 breast, 0.26 µM; in the assay with IGROV1 ovarian it was 0.569 µM; in the assay on NCI-H226 lung it was 2.06 µM. Moreover, the GI50 in the assay on ACHN renal was 0.804 µM; in the assay on SN12C renal it was 0.62 µM; with UO-31 renal it was 0.923 µM; with DU-145 prostate, 0.341 µM. Moreover, the TGI was above 100 µM in the assay on SF-295 CNS; above 100 µM in the assay with HOP-62 NSCLC; above 100 µM in the assay on OVCAR-5 ovarian; above 100 µM in the assay with MCF7 breast; above 100 µM with IGROV1 ovarian; above 28.3 µM with NCI-H226 lung. The TGI in the assay on ACHN renal, in the assay with SN12C renal, with UO-31 renal and in the assay with DU-145 prostate was above 100 µM each time.

`CCOC(=O)N1CCN(C(=O)c2ccc(C(F)(F)F)nc2Nc2cc(Cl)ccc2C)CC1`: the GI50 was 14.6 µM in the assay with SF-295 CNS; 25.8 µM with HOP-62 NSCLC; 39.4 µM in the assay with OVCAR-5 ovarian; 14.7 µM in the assay on MCF7 breast; 1.38 µM with IGROV1 ovarian; 20.5 µM in the assay with NCI-H226 lung. In addition, the GI50 in the assay on ACHN renal is 13.9 µM; with SN12C renal it was 36.8 µM; in the assay on UO-31 renal, 7.82 µM; with DU-145 prostate, 48.2 µM. Also, the TGI is 65.3 µM with SF-295 CNS; above 100 µM with HOP-62 NSCLC; above 100 µM with OVCAR-5 ovarian; 43 µM in the assay on MCF7 breast; 59.7 µM with IGROV1 ovarian; 68.6 µM in the assay with NCI-H226 lung. The TGI in the assay with ACHN renal was 89.4 µM; with SN12C renal it was above 100 µM; in the assay on UO-31 renal it was above 100 µM; with DU-145 prostate it was above 100 µM.

On to `COC(=O)[C@@H](NC(=O)[C@@H](OC)[C@@H]1Cc2cc3cc(OC4CC(OC5CC(O)C(O)C(C)O5)C(O)C(C)O4)c(C)c(O)c3c(O)c2C(=O)[C@H]1OC1CC(OC2CC(OC3CC(C)(O)C(O)C(C)O3)C(O)C(C)O2)C(O)C(C)O1)C(C)C` (stereo partly drawn), for which the GI50 was 0.0934 µM in the assay on SF-295 CNS; 0.0824 µM with HOP-62 NSCLC; 0.265 µM with OVCAR-5 ovarian; 0.0538 µM in the assay on MCF7 breast; 0.101 µM in the assay on IGROV1 ovarian; 0.109 µM with NCI-H226 lung. Besides, the GI50 with ACHN renal is 0.0956 µM; in the assay with SN12C renal, 0.145 µM; in the assay with UO-31 renal, 0.129 µM; with DU-145 prostate, 0.158 µM. For the same compound, the TGI in the assay on SF-295 CNS is 2.11 µM; with HOP-62 NSCLC, above 32.5 µM; in the assay on OVCAR-5 ovarian, 10.8 µM; in the assay on MCF7 breast, above 32.5 µM; in the assay with IGROV1 ovarian, above 32.5 µM; in the assay on NCI-H226 lung it was 0.963 µM. The TGI is 3.7 µM with ACHN renal, above 32.5 µM in the assay on SN12C renal, 4.4 µM in the assay with UO-31 renal and above 32.5 µM in the assay with DU-145 prostate.

With `O=C(CN(C1CCCCC1)C1CCCCC1)Nc1ccc(S(=O)(=O)c2ccc(NC(=O)CN(C3CCCCC3)C3CCCCC3)cc2)cc1`, the GI50 with SF-295 CNS is 1.5 µM; in the assay on HOP-62 NSCLC it was 1.2 µM; in the assay on OVCAR-5 ovarian it was 1.13 µM; in the assay on MCF7 breast, 0.299 µM; in the assay on IGROV1 ovarian, 0.421 µM; with NCI-H226 lung it was 2.06 µM. The GI50 in the assay on ACHN renal was 1.17 µM; with SN12C renal it was 1.33 µM; with UO-31 renal it was 1.24 µM; in the assay on DU-145 prostate it was 1.14 µM. Further, the TGI with SF-295 CNS was 2.96 µM; in the assay with HOP-62 NSCLC it was 3.56 µM; in the assay on OVCAR-5 ovarian it was 2.52 µM; in the assay on MCF7 breast it was 1.62 µM; with IGROV1 ovarian, 1.6 µM; in the assay on NCI-H226 lung, 9.43 µM. In addition, the TGI with ACHN renal is 2.4 µM; in the assay with SN12C renal, 2.73 µM; in the assay on UO-31 renal it was 2.56 µM; in the assay on DU-145 prostate it was 2.38 µM.

Regarding `CCN(CC)CCNCC(=O)Oc1ccc(/C=C/C(=O)CC(=O)/C=C/c2ccc(OC(=O)CNCCN(CC)CC)c(OC)c2)cc1OC`, the GI50 in the assay with SF-295 CNS was 5.55 µM; with HOP-62 NSCLC it was 3.34 µM; with OVCAR-5 ovarian it was 3.83 µM; in the assay with MCF7 breast, 2.58 µM; in the assay on IGROV1 ovarian it was 4.04 µM; in the assay with NCI-H226 lung it was 6.97 µM. The GI50 with ACHN renal is 5.28 µM; in the assay with SN12C renal, 3.32 µM; in the assay on UO-31 renal, 3.48 µM; in the assay with DU-145 prostate it was 2.74 µM. In addition, the TGI in the assay on SF-295 CNS worked out at 22.2 µM; in the assay on HOP-62 NSCLC it was 12.8 µM; with OVCAR-5 ovarian it was 15.1 µM; in the assay with MCF7 breast, 18 µM; in the assay with IGROV1 ovarian, 8.94 µM; in the assay with NCI-H226 lung, 22.1 µM. The TGI is 20.8 µM in the assay with ACHN renal, 79.6 µM in the assay on SN12C renal, 11 µM with UO-31 renal and 9.56 µM in the assay on DU-145 prostate.

With `Nc1ccncc1/C=C1/C(=O)Nc2ccccc21`, the GI50 was 28.2 µM in the assay on SF-295 CNS; 23.6 µM with HOP-62 NSCLC; 75.3 µM with OVCAR-5 ovarian; 26.6 µM with MCF7 breast; 29 µM in the assay with IGROV1 ovarian; 40.5 µM with NCI-H226 lung. Further, the GI50 was 43.7 µM in the assay on ACHN renal, 18.3 µM in the assay with SN12C renal, 18.9 µM with UO-31 renal and 44.9 µM in the assay with DU-145 prostate. Also, the TGI is 79 µM in the assay on SF-295 CNS; 81.6 µM with HOP-62 NSCLC; above 100 µM in the assay on OVCAR-5 ovarian; above 100 µM in the assay on MCF7 breast; above 100 µM in the assay on IGROV1 ovarian; above 100 µM in the assay with NCI-H226 lung. For the same compound, the TGI in the assay on ACHN renal, in the assay with SN12C renal, with UO-31 renal and in the assay with DU-145 prostate was above 100 µM throughout.

For `CCOC(=O)C1=C(C)N(N)C(=S)NC1c1ccc(C)cc1` (stereo not drawn), the GI50 was 36.9 µM in the assay with SF-295 CNS; above 100 µM in the assay on HOP-62 NSCLC; 15.7 µM with OVCAR-5 ovarian; 16 µM in the assay on MCF7 breast; 28.2 µM in the assay on IGROV1 ovarian; 33.8 µM with NCI-H226 lung. Moreover, the GI50 in the assay on ACHN renal is 22.6 µM; in the assay on SN12C renal it was above 100 µM; in the assay with UO-31 renal, 23.5 µM. Moreover, the TGI with SF-295 CNS was above 100 µM; in the assay on HOP-62 NSCLC, above 100 µM; with OVCAR-5 ovarian, above 100 µM; in the assay on MCF7 breast it was 73.6 µM; in the assay on IGROV1 ovarian it was above 100 µM; in the assay on NCI-H226 lung it was above 100 µM. Besides, the TGI in the assay with ACHN renal is above 100 µM; with SN12C renal, above 100 µM; with UO-31 renal it was above 100 µM; in the assay with DU-145 prostate it was 12.3 µM.
